Assay results: patent US20250195483A1, “SPIRO PIPERIDINE DERIVATIVES AS INHIBITORS OF APOL1 AND METHODS OF USING SAME” (Vertex Pharmaceuticals Incorporated, priority 2022, published 2025)

Biological target: T1, APOL1 (Homo sapiens, UniProt O14791)
T1 sequence (O14791 1-398): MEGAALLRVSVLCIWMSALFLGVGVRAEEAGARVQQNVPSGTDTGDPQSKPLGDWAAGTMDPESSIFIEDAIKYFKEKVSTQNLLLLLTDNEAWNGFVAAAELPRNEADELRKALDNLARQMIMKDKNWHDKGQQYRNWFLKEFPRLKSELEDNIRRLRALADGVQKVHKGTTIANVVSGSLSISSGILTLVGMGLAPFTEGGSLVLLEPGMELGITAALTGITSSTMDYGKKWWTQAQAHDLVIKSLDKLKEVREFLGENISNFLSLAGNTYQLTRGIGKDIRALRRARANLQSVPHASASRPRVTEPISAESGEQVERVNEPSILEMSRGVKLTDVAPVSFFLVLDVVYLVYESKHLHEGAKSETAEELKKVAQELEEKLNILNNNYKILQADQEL
Test: MultiTox-Fluor Multiplex Cytotoxicity Assay, tet-inducible APOL1 T-REx-HEK293 cells (G0, G1 or G2 clone not specified for Table 20)
Format: cell-based
Settings: tet-induced, 24 hours with compound, ratio of dead to live cells, read-out: IP50 (i.e., IC50 for cell proliferation)
Procedure, shortened: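 HEK293 T-REx cells with tet-inducible APOL1 G0, G1 or G2 clone, 23,400/well, treated with tetracycline plus compound (top 10 μM, 10-point 3-fold, duplicate) for 24 h at 37° C. MultiTox-Fluor dead/live fluorescence ratio, normalized to no-tet (100% viability) and 50 ng/mL tet (0% viability) controls, then curve-fitted.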

SMILES: C[C@H]1CC2(CCN1Cc1cnn(-c3ccccc3)c1)OC(C(N)=O)c1ccc(Cl)cc12 (stereo partly drawn) [Compound 292, (2′S)-5-chloro-2′-methyl-1′-[(1-phenylpyrazol-4-yl)methyl]spiro[1H-isobenzofuran-3,4′-piperidine]-1-carboxamide]
- IC50: ≤ 50 nM

SMILES: CNC(=O)C1OC2(CCN(Cc3cnn(-c4cccc(C(F)(F)F)c4)c3)CC2)c2cc(Cl)ccc21 (stereo not shown) [Compound 295, 5-chloro-N-methyl-1′-[[1-[3-(trifluoromethyl)phenyl]pyrazol-4-yl]methyl]spiro[1H-isobenzofuran-3,4′-piperidine]-1-carboxamide]
- IC50: ≤ 50 nM

SMILES: COc1ccc2c(c1)C1(CCN(Cc3cnn(-c4ccccc4)c3)CC1)OC2C(N)=O (stereo not shown) [Compound 296, 6-methoxy-1′-((1-phenyl-1H-pyrazol-4-yl)methyl)-3H-spiro[isobenzofuran-1,4′-piperidine]-3-carboxamide]
- IC50: ≥ 500 nM

SMILES: CNC(=O)C1OC2(CCN(Cc3cnn(-c4ccccc4)c3)CC2)c2cc(OC)ccc21 (stereo not shown) [Compound 297, 6-methoxy-N-methyl-1′-((1-phenyl-1H-pyrazol-4-yl)methyl)-3H-spiro[isobenzofuran-1,4′-piperidine]-3-carboxamide]
- IC50: ≥ 500 nM

SMILES: CNC(=O)C1OC2(CCN(Cc3cnn(C(C)C)c3)CC2)c2cc(Cl)ccc21 (stereo not shown) [Compound 298, 6-chloro-1′-((1-isopropyl-1H-pyrazol-4-yl)methyl)-N-methyl-3H-spiro[isobenzofuran-1,4′-piperidine]-3-carboxamide]
- IC50: ≥ 500 nM

SMILES: CNC(=O)C1OC2(CCN(Cc3cnn(-c4ccccc4)c3C)CC2)c2cc(Cl)ccc21 (stereo not shown) [Compound 299, 6-chloro-N-methyl-1′-((5-methyl-1-phenyl-1H-pyrazol-4-yl)methyl)-3H-spiro[isobenzofuran-1,4′-piperidine]-3-carboxamide]
- IC50: ≥ 500 nM

SMILES: CS(=O)(=O)CCn1cc(CN2CCC3(CC2)CC(O)c2ccc(Cl)cc23)cn1 (stereo not shown) [Compound 302, 5-chloro-1′-[[1-(2-methylsulfonylethyl)pyrazol-4-yl]methyl]spiro[indane-3,4′-piperidine]-1-ol]
- IC50: 50 to 500 nM

SMILES: CC1(O)CC2(CCN(Cc3cnn(CCS(C)(=O)=O)c3)CC2)c2cc(Cl)ccc21 (stereo not shown) [Compound 303, 5-chloro-1-methyl-1′-[[1-(2-methylsulfonylethyl)pyrazol-4-yl]methyl]spiro[indane-3,4′-piperidine]-1-ol]
- IC50: ≥ 500 nM

SMILES: Cc1ccc2c(c1)C1(CCN(Cc3cnn(C)c3)CC1)SC2 [Compound 304, 5-methyl-1′-[(1-methylpyrazol-4-yl)methyl]spiro[1H-2-benzothiophene-3,4′-piperidine]]
- IC50: ≥ 500 nM

SMILES: CS(=O)(=O)CCn1cc(CN2CCC3(CC2)CNc2ccc(Cl)cc23)cn1 [Compound 305, 5-chloro-1′-[[1-(2-methylsulfonylethyl)pyrazol-4-yl]methyl]spiro[indoline-3,4′-piperidine]]
- IC50: ≥ 500 nM

SMILES: Cc1ccc2c(c1)C1(CCN(Cc3cnn(CCS(C)(=O)=O)c3)[C@@H](C)C1)CC2O (stereo partly drawn) [Compound 308, (2′S)-2′,5-dimethyl-1′-[[1-(2-methylsulfonylethyl)pyrazol-4-yl]methyl]spiro[indane-3,4′-piperidine]-1-ol]
- IC50: ≤ 50 nM

SMILES: Cc1cccc2c1C(O)CC21CCN(Cc2cnn(CCS(C)(=O)=O)c2)[C@@H](C)C1 (stereo partly drawn) [Compound 309, (2′S)-2′,4-dimethyl-1′-((1-(2-(methylsulfonyl)ethyl)-1H-pyrazol-4-yl)methyl)-2,3-dihydrospiro[indene-1,4′-piperidin]-3-ol]
- IC50: 50 to 500 nM

SMILES: Cn1cc(CN2CCC3(CCc4ccc(Cl)cc43)CC2)cn1 [Compound 310, 6-chloro-1′-[(1-methylpyrazol-4-yl)methyl]spiro[indane-1,4′-piperidine]]
- IC50: ≥ 500 nM

SMILES: Cn1cc(CN2CCC3(CC2)NCc2ccc(Cl)cc23)cn1 [Compound 311, 6-chloro-1′-[(1-methylpyrazol-4-yl)methyl]spiro[isoindoline-1,4′-piperidine]]
- IC50: ≥ 500 nM

SMILES: CS(=O)(=O)CCn1cc(CN2CCC3(CC2)CC(N2CCNC2=O)c2ccc(Cl)cc23)cn1 (stereo not shown) [Compound 312, 1-[5-chloro-1′-[[1-(2-methylsulfonylethyl)pyrazol-4-yl]methyl]spiro[indane-3,4′-piperidine]-1-yl]imidazolidin-2-one]
- IC50: ≥ 500 nM

SMILES: CC(=O)N1CC2(CCN(Cc3cnn(C)c3)CC2)c2cc(Cl)ccc21 [Compound 314, 1-[5-chloro-1′-[(1-methylpyrazol-4-yl)methyl]spiro[indoline-3,4′-piperidine]-1-yl]ethenone]
- IC50: ≥ 500 nM
